Patent US4443436A, “C-20-Modified macrolide derivatives of the macrolide antibiotics tylosin, desmycosin, macrocin, and lactenocin” (Eli Lilly and Company, priority 1982, dated 1984)
Values after ≈ are worked out from the molar mass of the structure shown. Read-outs that look alike come from different tables or passages of the source.

Columns and labels:
[1] = system: Streptococcus pyogenes C203; assay: In vivo protection of mice experimentally infected with S. pyogenes C203; details: mice, doses given 1 and 4 hours post-infection; for ED50: Streptococcus pyogenes
Protocol: The C-20 modified derivatives of this invention have shown in vivo antimicrobial activity against experimentally-induced infections in laboratory animals. When two doses of test compound were administered to mice experimentally infected with S. pyogenes C203, the activity observed was measured as an ED50 value [effective dose in mg/kg to protect 50% of the test animals: see Warren Wick, et al., J. Bacteriol. 81, 233-235 (1961)].

[2] = system: Mycoplasma gallisepticum; assay: MIC, broth-dilution microtiter test, Mycoplasma gallisepticum; type: cell-based; details: Mycoplasma gallisepticum, broth-dilution microtiter
Excerpt: (§1) The MIC's in Table X were obtained using conventional broth-dilution microtiter tests.

[3] = system: Staphylococcus aureus V41; assay: MIC, standard agar-dilution assay, Staphylococcus aureus V41; type: cell-based
[4] = system: Streptococcus pneumoniae Park I; assay: microbe, parasite or virus in culture; type: cell-based
[5] = system: Staphylococcus aureus X1.1; assay: MIC, standard agar-dilution assay, Staphylococcus aureus X1.1; type: cell-based
[6] = system: Pasteurella multocida 60A; assay: MIC, broth-dilution microtiter test, Pasteurella multocida 60A; type: cell-based
Excerpt: as §1

[7] = system: Staphylococcus aureus S13E; assay: MIC, standard agar-dilution assay, Staphylococcus aureus S13E; type: cell-based
[8] = system: Mycoplasma hyopneumoniae; assay: MIC, broth-dilution microtiter test, Mycoplasma hyopneumoniae; type: cell-based
Excerpt: as §1

[9] = system: Pasteurella multocida; assay: Oral (gavage) treatment of Pasteurella multocida-infected chicks; type: in vivo, one-day-old chicks
Protocol: Many of the C-20 modified derivatives of this invention have also shown in vivo antibacterial activity against infections induced by gram-negative bacteria. Tables XII and XIII summarize the results of tests in which illustrative compounds were evaluated against Pasteurella infection in one-day-old chicks. The compounds were administered parenterally or orally after challenge of the chicks with Pasteurella multocida (0.1 ml of a 10^-4 dilution of a twenty-hour tryptose broth culture of an avian P. multocida given subcutaneously). In these tests, unless indicated otherwise, all non-medicated infected chicks died within 24 hours of Pasteurella challenge. In the tests summarized in Table XII the compounds were administered by subcutaneous injection at a dosage of 30 mg/kg, 1 and 4 hours post-challenge of the chicks with P. multocida. In the test summarized in Table XIII the compounds were administered by gavage at 1 and 5 hours post-challenge of the chicks with P. multocida.

[10] = system: Pasteurella multocida 17E; assay: MIC, broth-dilution microtiter test, Pasteurella multocida 17E; type: cell-based
Excerpt: as §1

[11] = system: Streptococcus Group 9960; assay: MIC, standard agar-dilution assay, Streptococcus Group 9960; type: cell-based
[12] = system: Streptococcus pyogenes C203; assay: MIC, standard agar-dilution assay, Streptococcus pyogenes C203; type: cell-based
[13] = system: Staphylococcus epidermidis EPI1; assay: MIC, standard agar-dilution assay, Staphylococcus epidermidis EPI1; type: cell-based
[14] = system: Streptococcus bovis 80; assay: MIC, broth-dilution microtiter test, Streptococcus bovis 80; type: cell-based
Excerpt: as §1

[15] = system: Streptococcus Group D X66; assay: MIC, standard agar-dilution assay, Streptococcus Group D X66; type: cell-based
[16] = system: Haemophilus influenzae R252; assay: MIC, standard agar-dilution assay, Haemophilus influenzae R252; type: cell-based
[17] = system: Staphylococcus aureus; assay: MIC, broth-dilution microtiter test, Staphylococcus aureus; type: cell-based; details: broth-dilution microtiter
Excerpt: as §1

[18] = system: Pasteurella hemolytica 22C; assay: MIC, broth-dilution microtiter test, Pasteurella hemolytica 22C; type: cell-based
Excerpt: as §1

[19] = system: Staphylococcus aureus X400; assay: MIC, standard agar-dilution assay, Staphylococcus aureus X400; type: cell-based
[20] = system: Mycoplasma synoviae; assay: MIC, broth-dilution microtiter test, Mycoplasma synoviae; type: cell-based
Excerpt: as §1

[21] = system: Mycoplasma hyorhinis; assay: MIC, broth-dilution microtiter test, Mycoplasma hyorhinis; type: cell-based
Excerpt: as §1

[22] = system: Staphylococcus epidermidis EPI2; assay: MIC, standard agar-dilution assay, Staphylococcus epidermidis EPI2; type: cell-based; details: Staphylococcus epidermidis EPI2, agar dilution
[23] = system: Haemophilus influenzae Holt; assay: MIC, standard agar-dilution assay, Haemophilus influenzae Holt; type: cell-based
[24] = C203, sc, subcutaneous, read-out: ED50, Subcutaneous
[25] = C203, oral, read-out: ED50, Oral
[26] = Mycoplasmoides gallisepticum, read-out: MIC
[27] = Staphylococcus epidermidis, EPI1

SMILES: CCC1OC(=O)CC(O)C(C)C(OC2OC(C)C(O)C(N(C)C)C2O)C(CCOc2ccc(OC)cc2)CC(C)C(=O)C=CC(C)=CC1COC1OC(C)C(O)C(OC)C1OC (stereo not drawn) [Compound 35, 20-DH-20-O-(p-Methoxyphenyl)desmycosin]
- ED50 [1, 24]: 1.6 mg/kg
- ED50 [1, 25]: 11 mg/kg
- MIC [2, 26]: 0.39 µg/mL (≈ 0.443 µM)
- MIC ([3]; Staphylococcus aureus, V41): 0.25 µg/mL (≈ 0.284 µM)
- MIC ([4]; Streptococcus pneumoniae): 1 µg/mL (≈ 1.14 µM)
- MIC ([5]; Staphylococcus aureus, X1.1): 0.25 µg/mL (≈ 0.284 µM)
- MIC ([6]; Pasteurella multocida, 60A): 12.5 µg/mL (≈ 14.2 µM)
- MIC ([7]; Staphylococcus aureus, S13E): 0.25 µg/mL (≈ 0.284 µM)
- MIC ([8]; Mesomycoplasma hyopneumoniae): 6.25 µg/mL (≈ 7.1 µM)
- Number of Deaths/Number tested ([9]; 1.5 g/gal equivalent): 1/10
- Number of Deaths/Number tested ([9]; 2.0 g/gal equivalent): 4/10
- MIC ([10]; Pasteurella multocida, 17E): 12.5 µg/mL (≈ 14.2 µM)
- MIC ([11]; GROUP9960, Streptococcus Group 9960, agar dilution, read-out: MIC): 8 µg/mL (≈ 9.09 µM)
- MIC ([12]; Streptococcus pyogenes, C203): 1 µg/mL (≈ 1.14 µM)
- MIC [13, 27]: 0.25 µg/mL (≈ 0.284 µM)
- MIC ([14]; Streptococcus equinus, 80): 1.56 µg/mL (≈ 1.77 µM)
- MIC [15]: 4 µg/mL (≈ 4.55 µM)
- MIC ([16]; Haemophilus influenzae, R252): 16 µg/mL (≈ 18.2 µM)
- MIC ([17]; read-out: MIC): 0.39 µg/mL (≈ 0.443 µM)
- MIC ([18]; Pasteurella hemolytica 22C, broth-dilution microtiter, read-out: MIC): 25 µg/mL (≈ 28.4 µM)
- MIC ([19]; Staphylococcus aureus, X400): 0.25 µg/mL (≈ 0.284 µM)
- MIC ([20]; Mycoplasmopsis synoviae): 0.78 µg/mL (≈ 0.886 µM)
- MIC ([21]; Mycoplasma hyorhinis, broth-dilution microtiter, read-out: MIC): > 50 µg/mL
- MIC ([22]; read-out: MIC): 0.12 µg/mL (≈ 0.136 µM)

SMILES: CCC1OC(=O)CC(O)C(C)C(OC2OC(C)C(O)C(N(C)C)C2O)C(CCOc2ccc(C(=O)c3ccccc3)cc2)CC(C)C(=O)C=CC(C)=CC1COC1OC(C)C(O)C(OC)C1OC (stereo not drawn) [Compound 37, 20-DH-20-O-(p-Benzoylphenyl)desmycosin]
- ED50 [1, 24]: 7.2 mg/kg
- ED50 [1, 25]: 18 mg/kg
- MIC [2, 26]: 0.19 µg/mL (≈ 0.199 µM)
- MIC ([3]; Staphylococcus aureus, V41): 0.25 µg/mL (≈ 0.262 µM)
- MIC ([5]; Staphylococcus aureus, X1.1): 0.25 µg/mL (≈ 0.262 µM)
- MIC ([6]; Pasteurella multocida 60A, avian isolate, broth-dilution microtiter, read-out: MIC): 25 µg/mL (≈ 26.2 µM)
- MIC ([7]; Staphylococcus aureus, S13E): 0.25 µg/mL (≈ 0.262 µM)
- MIC ([8]; Mesomycoplasma hyopneumoniae, Mycoplasma hyopneumoniae, broth-dilution microtiter, read-out: MIC): 0.19 µg/mL (≈ 0.199 µM)
- Number of Deaths/Number tested ([9]; 1.5 g/gal equivalent): 10/10
- MIC ([10]; Pasteurella multocida, 17E): 12.5 µg/mL (≈ 13.1 µM)
- MIC ([11]; GROUP9960): 0.5 µg/mL (≈ 0.524 µM)
- MIC [13, 27]: 0.25 µg/mL (≈ 0.262 µM)
- MIC ([14]; Streptococcus equinus, Streptococcus bovis 80, broth-dilution microtiter, read-out: MIC): 0.19 µg/mL (≈ 0.199 µM)
- MIC [15]: 0.25 µg/mL (≈ 0.262 µM)
- MIC ([16]; Haemophilus influenzae, R252): 16 µg/mL (≈ 16.8 µM)
- MIC ([23]; Haemophilus influenzae): 16 µg/mL (≈ 16.8 µM)
- MIC ([17]; read-out: MIC): 0.19 µg/mL (≈ 0.199 µM)
- MIC ([18]; Pasteurella, 22C): 12.5 µg/mL (≈ 13.1 µM)
- MIC ([19]; Staphylococcus aureus, X400): 0.25 µg/mL (≈ 0.262 µM)
- MIC ([20]; Mycoplasmopsis synoviae): 1.56 µg/mL (≈ 1.63 µM)
- MIC ([21]; Mycoplasma): 0.78 µg/mL (≈ 0.817 µM)
- MIC ([22]; read-out: MIC): 0.12 µg/mL (≈ 0.126 µM)

SMILES: CCC1OC(=O)CC(O)C(C)C(OC2OC(C)C(OC(C)=O)C(N(C)C)C2OC(C)=O)C(CCOc2ccccc2)CC(C)C(=O)C=CC(C)=CC1COC1OC(C)C(O)C(OC)C1OC (stereo not drawn) [Compound 68, 20-DH-20-O-Phenyl-2',4'-di-O-acetyldesmycosin]
- ED50, Oral ([1]; oral): 16 mg/kg × 2
- ED50, Subcutaneous ([1]; subcutaneous): 2.9 mg/kg × 2
- MIC [2]: 0.39 µg/mL (≈ 0.418 µM)
- MIC ([3]; Staphylococcus aureus V41, penicillin-resistant strain, agar dilution): 0.5 µg/mL (≈ 0.535 µM)
- MIC ([4]; Streptococcus pneumoniae Park I, agar dilution): 0.5 µg/mL (≈ 0.535 µM)
- MIC ([5]; Staphylococcus aureus X1.1, agar dilution): 0.5 µg/mL (≈ 0.535 µM)
- MIC ([6]; Pasteurella multocida 60A, avian isolate, broth-dilution microtiter): 25 µg/mL (≈ 26.8 µM)
- MIC ([7]; Staphylococcus aureus S13E, agar dilution): 0.5 µg/mL (≈ 0.535 µM)
- MIC ([8]; Mycoplasma hyopneumoniae, broth-dilution microtiter): 12.5 µg/mL (≈ 13.4 µM)
- MIC ([10]; Pasteurella multocida 17E, bovine isolate, broth-dilution microtiter): 25 µg/mL (≈ 26.8 µM)
- MIC ([11]; Streptococcus Group 9960, agar dilution): 8 µg/mL (≈ 8.56 µM)
- MIC ([12]; Streptococcus pyogenes C203, agar dilution): 0.5 µg/mL (≈ 0.535 µM)
- MIC ([13]; Staphylococcus epidermidis EPI1, agar dilution): 0.5 µg/mL (≈ 0.535 µM)
- MIC ([14]; Streptococcus bovis 80, broth-dilution microtiter): 6.25 µg/mL (≈ 6.69 µM)
- MIC ([15]; Streptococcus Group D X66, agar dilution): 4 µg/mL (≈ 4.28 µM)
- MIC ([16]; Haemophilus influenzae R252, ampicillin-resistant strain, agar dilution): 16 µg/mL (≈ 17.1 µM)
- MIC ([23]; Haemophilus influenzae Holt, ampicillin-sensitive strain, agar dilution): 32 µg/mL (≈ 34.3 µM)
- MIC [17]: 0.39 µg/mL (≈ 0.418 µM)
- MIC ([18]; Pasteurella hemolytica 22C, broth-dilution microtiter): 25 µg/mL (≈ 26.8 µM)
- MIC ([19]; Staphylococcus aureus X400, methicillin-resistant strain, agar dilution): 0.5 µg/mL (≈ 0.535 µM)
- MIC ([20]; Mycoplasma synoviae, broth-dilution microtiter): 3.12 µg/mL (≈ 3.34 µM)
- MIC ([21]; Mycoplasma hyorhinis, broth-dilution microtiter): -- (Not active at 50 mcg/ml, the highest level tested)
- MIC [22]: 0.12 µg/mL (≈ 0.128 µM)
